According to article PMC9322761, “Design, Synthesis and Biological Characterization of Histone Deacetylase 8 (HDAC8) Proteolysis Targeting Chimeras (PROTACs) with Anti-Neuroblastoma Activity” (International Journal of Molecular Sciences, 2022):

Tests used:
HDAC8 [1] = target: T1, HDAC8 (Homo sapiens, UniProt Q9BY41); experiment: In vitro HDAC8 activity assay (Fluor de Lys-HDAC8); format: biochemical; design: made in house; settings: for IC50: Table 1, PROTACs
T1 sequence (Q9BY41 1-377): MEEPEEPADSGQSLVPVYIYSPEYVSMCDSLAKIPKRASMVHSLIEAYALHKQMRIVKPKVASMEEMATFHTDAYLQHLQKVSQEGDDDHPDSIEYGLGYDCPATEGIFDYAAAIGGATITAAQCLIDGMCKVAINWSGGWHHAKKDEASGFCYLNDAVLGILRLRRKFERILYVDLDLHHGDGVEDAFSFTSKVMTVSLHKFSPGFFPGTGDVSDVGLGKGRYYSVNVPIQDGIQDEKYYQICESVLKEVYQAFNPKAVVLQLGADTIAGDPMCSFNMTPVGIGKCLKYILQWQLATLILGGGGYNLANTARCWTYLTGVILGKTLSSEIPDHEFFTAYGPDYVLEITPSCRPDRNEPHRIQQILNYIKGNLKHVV
Experimental: Recombinant hHDAC8 was produced by Romier et al. in Strasbourg. The HDAC8 activity assays were performed according to the commercial HDAC8 Fluorometric Drug Discovery Kit (Fluor de Lys(R)-HDAC8, BML-KI178) corresponding to the instructions of the manufacturer. As substrate a tetrapeptide connected to aminomethylcoumarin (AMC) H2N-Arg- His-Lys(Ac)-Lys(Ac)-AMC was synthesized as previously described. The enzyme was incubated for 90 min at 37 °C, with a substrate concentration of 50 µM and increasing concentrations of inhibitors. The stop-solution-containing inhibitor was added to stop the hHDAC8 activity, and Trypsin was added to release the AMC. The solution was incubated for 20 min at 37 °C to develop the assay.
(§1) Inhibition was measured at increasing concentration and IC50 was calculated by nonlinear regression with Origin 9.0G software.

HDAC8 [2] = target: T1, HDAC8; experiment: HDAC8 degradation in SK-N-BE(2)-C neuroblastoma cells (Western blot); format: cell-based; design: endogenous in cells; host or cells: SK-N-BE(2)-C; settings: SK-N-BE(2)-C cells; for HDAC8 degradation: up to 10 µM, Western blot
Experimental: Whole cell lysates from treated SK-N-BE(2)-C neuroblastoma cells were taken and the protein levels for HDAC8 and the acetylation of its substrate SMC3 were determined (Figure 6). As a control for HDAC6, we also assessed acetylation levels of α-tubulin. […] Western blot analysis was performed as described previously (Kolbinger et al.).
Figure 6 (A) SK-N-BE(2)-C neuroblastoma cells were treated for indicated time points with 10 µM of PROTACs. Degradation of HDAC8 and acetylation of HDAC8 target was analyzed via Western blot. (B) SK-N-BE(2)-C neuroblastoma cells were treated for 6 h with indicated concentrations of HyT_1p, CRBN_1b and HyT_1m. Acetylation of HDAC8 target SMC3 and HDAC6 target tubulin, as well as total HDAC8 levels, were assessed by Western blot. Quantified ac-SMC3 or ac-tubulin expression, respectively, was normalized to the respective tubulin loading control and to the solvent control (DMSO). This quantification is reflected by the numbers below each blot. […] Total HDAC6, total HDAC1, total HDAC8, and acetyl-histone H4 expression levels, were assessed by Western blot. Total GAPDH protein levels served as a loading control (LC). * unspecific bands obtained through reprobing of the membrane.

HDAC6 = target: T2, HDAC6 (Homo sapiens, UniProt Q9UBN7); experiment: In vitro HDAC inhibitory activity assay, recombinant HDAC6 (fluorogenic substrate ZMAL); format: biochemical; design: purchased BPS Biosciences
T2 sequence (Q9UBN7 1-1215): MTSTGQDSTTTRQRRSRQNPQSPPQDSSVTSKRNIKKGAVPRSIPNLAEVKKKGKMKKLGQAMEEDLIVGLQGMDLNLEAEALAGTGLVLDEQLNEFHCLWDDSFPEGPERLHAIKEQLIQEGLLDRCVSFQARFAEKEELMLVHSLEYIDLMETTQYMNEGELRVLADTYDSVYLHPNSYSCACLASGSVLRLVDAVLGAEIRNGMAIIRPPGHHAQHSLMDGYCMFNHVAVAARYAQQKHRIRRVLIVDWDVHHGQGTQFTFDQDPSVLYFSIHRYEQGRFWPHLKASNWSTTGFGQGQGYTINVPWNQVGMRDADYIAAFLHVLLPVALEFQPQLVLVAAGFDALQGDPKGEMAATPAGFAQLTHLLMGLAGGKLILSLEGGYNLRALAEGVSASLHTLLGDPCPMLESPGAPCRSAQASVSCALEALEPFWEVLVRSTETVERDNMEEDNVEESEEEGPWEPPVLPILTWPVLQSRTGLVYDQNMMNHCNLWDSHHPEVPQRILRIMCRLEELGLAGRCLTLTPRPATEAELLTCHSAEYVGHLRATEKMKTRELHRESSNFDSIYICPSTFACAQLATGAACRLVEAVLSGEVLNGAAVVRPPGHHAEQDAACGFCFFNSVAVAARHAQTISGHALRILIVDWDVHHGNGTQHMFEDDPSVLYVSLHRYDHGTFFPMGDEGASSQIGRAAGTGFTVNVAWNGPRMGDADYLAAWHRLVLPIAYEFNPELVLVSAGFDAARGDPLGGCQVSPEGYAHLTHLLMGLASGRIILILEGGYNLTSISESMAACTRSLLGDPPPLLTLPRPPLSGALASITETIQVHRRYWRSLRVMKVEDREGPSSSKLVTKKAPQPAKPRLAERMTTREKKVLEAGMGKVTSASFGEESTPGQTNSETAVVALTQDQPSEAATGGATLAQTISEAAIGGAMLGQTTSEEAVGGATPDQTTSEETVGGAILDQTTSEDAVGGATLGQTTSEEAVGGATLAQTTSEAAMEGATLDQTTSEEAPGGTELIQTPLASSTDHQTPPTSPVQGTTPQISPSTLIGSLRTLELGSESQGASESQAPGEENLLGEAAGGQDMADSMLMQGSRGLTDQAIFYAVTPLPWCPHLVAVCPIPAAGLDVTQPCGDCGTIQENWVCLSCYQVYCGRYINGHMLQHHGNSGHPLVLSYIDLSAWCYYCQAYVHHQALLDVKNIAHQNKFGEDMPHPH
Experimental: (§2) The in vitro testing on recombinant HDACs was performed as previously described. Recombinant human HDAC1 and −6 were purchased from BPS Biosciences. The enzyme inhibition was determined by using a reported homogenous fluorescence assay. […] Fluorescence intensity was measured at an excitation wavelength of 390 nm and an emission wavelength of 460 nm in a microtiter plate reader (BMG Polarstar).
as §1

HDAC1 = HDAC1 (Homo sapiens, UniProt Q13547); experiment: In vitro HDAC inhibitory activity assay, recombinant HDAC1 (fluorogenic substrate ZMAL); format: biochemical; design: purchased BPS Biosciences
Experimental: as §2, §1

Chain of HDAC1 (Q13547 whole entry): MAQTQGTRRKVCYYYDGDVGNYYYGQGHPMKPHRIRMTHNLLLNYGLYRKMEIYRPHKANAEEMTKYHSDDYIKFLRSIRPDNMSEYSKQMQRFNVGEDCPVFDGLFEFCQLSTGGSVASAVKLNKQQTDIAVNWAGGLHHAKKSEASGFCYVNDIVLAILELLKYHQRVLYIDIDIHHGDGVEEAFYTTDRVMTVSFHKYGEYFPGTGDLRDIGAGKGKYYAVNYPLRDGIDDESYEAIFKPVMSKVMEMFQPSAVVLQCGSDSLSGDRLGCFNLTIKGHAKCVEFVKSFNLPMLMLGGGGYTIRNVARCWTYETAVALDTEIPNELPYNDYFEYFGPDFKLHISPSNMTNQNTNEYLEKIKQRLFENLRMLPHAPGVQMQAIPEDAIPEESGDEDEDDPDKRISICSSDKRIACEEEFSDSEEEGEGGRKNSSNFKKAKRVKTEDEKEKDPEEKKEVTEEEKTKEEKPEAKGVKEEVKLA

Structure (SMILES) | HDAC8 inhibitory activity (HDAC8 [1]; negative control) | HDAC8 degradation (HDAC8 [2]) | HDAC6 inhibitory activity (HDAC6; negative control) | HDAC1 inhibitory activity (HDAC1; negative control) | IC50 (HDAC8 [1]) | SI (HDAC6/HDAC8) (HDAC8 [1]; selectivity index, HDAC6 over HDAC8) | Remaining HDAC8 protein (HDAC8 [2]; 6 h, 10 µM) | IC50 (HDAC6) | IC50 (HDAC1) | inhibition at 1 µM (HDAC6; 1 µM, read-out: HDAC6 % inhib. at given conc.) | inhibition at 10 µM (HDAC6; 10 µM, read-out: HDAC6 % inhib. at given conc.) | inhibition at 1 µM (HDAC1; 1 µM, read-out: HDAC1 % inhib. at given conc.) | inhibition at 10 µM (HDAC1; 10 µM, read-out: HDAC1 % inhib. at given conc.)
COC(=O)c1ccc(C)c(NCc2ccc(OCc3cn(CCCCCC(=O)Nc4cccc5c4C(=O)N(C4CCC(=O)NC4=O)C5=O)nn3)cc2)c1 (stereo not shown) [33a] | did not demonstrate a strong inhibitory activity | did not show hyperacetylation of SMC3 or HDAC8 degradation | did not demonstrate a strong inhibitory activity | did not demonstrate a strong inhibitory activity | – | – | – | – | – | – | – | – | –
COc1ccc(C(=O)NO)cc1NC(=O)c1ccc(NC(=O)CCCCCCCNc2cccc3c2C(=O)N(C2CCC(=O)NC2=O)C3=O)cc1 (stereo not shown) [CRBN_1b] | – | strong HDAC8 degradation | – | – | 810 ± 170 nM | 0.7 | 40% | 560 ± 100 nM | > 20 µM | – | – | – | –
O=C(COc1ccc(CNc2cc(C(=O)NO)ccc2Cl)cc1)NCCCCCNC(=O)CC12CC3CC(CC(C3)C1)C2 [HyT_1p] | – | failed to degrade HDAC8 | – | – | 750 ± 90 nM | – | – | – | – | 12.4% | 72.8% | 2.3% | 40%
